We go through 86 compounds from a melting point compilation (Tetko et al.; mined from patent text by program, amines drawn as free bases though some values may be those of a salt).

Turning to `O=c1cnc2c(NCCO)nc(SCc3cccc(Cl)c3F)nc2[nH]1`, the melting point (in general, the temperature of the solid-liquid transition) fell in the range of 195 to 196 °C.
On to `CC(C)C(NC(=O)OC(C)(C)C)C(=O)OCN1C(=O)CCC(N2C(=O)c3ccccc3C2=O)C1=O` (stereo unspecified), for which the melting point lay within 82 to 85 °C.
Take `CC1CN(c2ccc(F)cc2)N=C1NC=O` (stereo unspecified): the melting point lay within 166 to 168 °C.
The compound `CCN1C(Cl)=NC(OC)=NS1(=O)=O` had a melting point of 63 to 70 °C.
On to `Nc1sc2c(c1C(=O)c1ccc3c(c1)Cc1ccccc1-3)CCC2`, for which the melting point lay in the range of 176 to 182 °C.
In turn, `CCc1c(-c2ccc(OCc3ccccc3)cc2)c2ccc3c(N)ccc1n32` returned a melting point of 123 to 127 °C.
Regarding `CCOC(=O)C(C(=O)CCC(C)C)C1c2nccnc2C(=O)N1c1ccc2ccc(Cl)nc2n1` (stereo unspecified), the melting point came to 136 °C.
For `CCCC1(CC)Cc2cc(OCC(=O)O)c(Cl)c(Cl)c2C1=O` (stereo unspecified) the value was 126 °C; for `COc1ccc(CNC(=O)c2cc([N+](=O)[O-])ccc2NC2CC=CCC2)cc1F` (stereo unspecified), 140 °C; for `Cc1nc2cccc(C)n2c(=O)c1CCN1CCN(c2cccc(Cl)c2)CC1`, 116 to 118 °C.
`COc1cc(OC)c(/C=C/S(=O)(=O)Cc2ccc(OC)c([N+](=O)[O-])c2)c(OC)c1` displayed a melting point of 186 to 187 °C.
Regarding `CN1C(=O)N(CC(COc2ccc(-c3ccc(C#N)cc3)cc2)N(O)C=O)C(=O)C1(C)C` (stereo unspecified), the melting point lay within 65 to 67 °C.
In turn, `CN(C)Cc1ccc(-c2ccc(C(=O)c3ccc(Br)cc3)c(O)c2)cc1` had a melting point of 85 to 88 °C.
For `Cc1ccccc1NN=C(Cl)c1ccccc1` the value was 64.5 to 66 °C; for `Cc1nc(N2CCCC(CCCc3ccccc3)C2=O)sc1C(=O)NCc1ccccc1` (stereo unspecified), 140 to 141 °C; for `CC1=C(C(=O)OCCN(C)Cc2ccccc2)C(c2cccc3ncc(-c4ccc(C)cc4)cc23)C2=C(COC2=O)N1` (stereo unspecified), 173 to 175 °C.
In turn, `COc1ccc([C@H]2Cc3c(cccc3[N+](=O)[O-])NC(=O)[C@H]2O)cc1` (relative stereo) returned a melting point of 198 to 200 °C.
Consider `COc1ccc(C2(CCN3CCC(O)(c4nc5ccccc5n4Cc4ccc(F)cc4)CC3)CCN(C(=O)c3ccccc3)C2)cc1OC` (stereo unspecified), for which the melting point was in the range of 111 to 114 °C.
Compound `CCOC(=O)CCC(=O)c1cnc2c(OC)cccc2c1NCc1ccccc1` displayed a melting point of 201 to 202 °C.
For `COc1cc2c(c(OS(=O)(=O)c3ccc(C)cc3)c1OC)C1=C(CCC1)C(=O)CC2` the value was 138 °C.
As to `COc1ccc(N2C(=O)N(c3cccc(C#N)c3)c3nc(Nc4ccccc4)ncc3C2C)c(F)c1` (stereo unspecified), the melting point lay within 223 to 228 °C.
In turn, `Cc1nc2c(O)c(CCC(=O)c3ccccc3)c(C(=O)N(C)C)cc2n1COCC[Si](C)(C)C` had a melting point of 192 to 194 °C.
`CNS(=O)(=O)N1CCNC1=O` registered a melting point of 184 °C.
`N#Cc1ccc(-c2ccc(N3CC(CI)CC3=O)cc2)cc1` (stereo unspecified) gave a melting point of 178 to 179 °C.
`CC(C)n1nc(-c2ccc(O)cc2)c2cccc(C(F)(F)F)c21`: the melting point lay in the range of 156 to 157 °C.
For the compound `NC(=NOC(=O)c1ccccc1)c1nc(Cl)c(Cl)[nH]1`, the melting point lay within 177 to 178 °C.
`Oc1cc(CCl)ncn1` showed a melting point of 164 to 166 °C.
Regarding `COc1cc(N)c(Cl)cc1C(=O)NCC1CCN(CCCCCOc2ccc(F)cc2)CC1`, the melting point lay in the range of 105 to 107 °C.
On to `Cc1cnc2c(c1)c(C#N)c(-c1ccc(S(=O)(=O)N[C@@H](C)C(F)(F)F)cn1)n2C1CCC1`, for which the melting point lay within 177 to 179 °C.
On to `COC(=O)c1ccc2c(=O)c3ccccc3ccc2c1`, for which the melting point fell in the range of 115 to 116 °C.
Consider `Cc1ccc2c(c1)N(C(=O)NCCN1CCC(CCCN(C(C)C)C(C)C)CC1)c1ncccc1NC2=O`, for which the melting point was 160 to 162 °C.
Next, `CCC(=O)N(C)c1cccc(-c2ccc3nnc(C)n3n2)c1`: 150 to 152 °C; `CNCc1nc(-c2ncn3c2CN(C)C(=O)c2c(Cl)cccc2-3)no1`: 192 to 193 °C; `CCCOc1nn(-c2ccc(C(F)(F)F)cn2)cc1CCCOc1ccc(CCC(=O)O)c(OCC)c1`: 112 to 113 °C.
With `COc1ccc(C2=C(Cl)C(=O)C2)cc1`, the melting point was 96 to 98 °C.
For the compound `O=C1CC(O)CC(/C=C/c2ccc(Cl)c(Cl)c2)O1` (stereo unspecified), the melting point lay within 92 to 94 °C.
Turning to `CCS(=O)(=O)c1ccc(C(=O)NCc2ccc3c(c2)CN(C2CCC(=O)NC2=O)C3=O)cc1` (stereo unspecified), the melting point was in the range of 222 to 224 °C.
Compound `NC(=O)C(NCCc1cccs1)c1ccccc1Cl` (stereo unspecified) showed a melting point of 90 to 92 °C.
`CC(=O)N(C)Cc1cc2c(-c3ccccc3)c(CC(=O)Nc3ccc(Cl)cc3C(F)(F)F)c(=O)oc2cc1Cl` returned a melting point of 199 to 201 °C.
Take `O=C(CCCNC(=O)c1ccc(OC(F)(F)F)cc1)CCCNC(=O)c1ccc(OC(F)(F)F)cc1`: the melting point is 151 to 152 °C.
As for `N[C@H]1CCN(c2cc3c(cc2F)c(=O)c(C(=O)O)cn3-c2nc[nH]n2)C1`, the melting point lay in the range of 250 to 260 °C.
For the compound `CCCCN(CCCC)CCCCOc1ccc(S(=O)(=O)c2c(C(C)C)cn3ccccc23)cc1`, the melting point is 96 °C.
`CCCCCCCCCCCCCCCCCCCc1cc(N)cc(CCCCCCCCCCCCCCCCCCC)c1` showed a melting point of 51 to 53 °C.
Turning to `NNc1nc(C(F)(F)F)c(Cl)s1`, the melting point is 136 to 137 °C.
Next, `CC1(C)CNC(=O)N1CC#CCN1CCCC1`: 50 °C; `CCCCCCCCCCCCCCOc1ccccc1NS(=O)(=O)c1ccc2c(N=Nc3ccc(OC)cc3)c(O)ccc2c1`: 118 to 121 °C.
`NC(=O)c1cc2cc(OCC3CO3)ccc2o1` (stereo unspecified) registered a melting point of 153 to 155 °C.
`CCCCCCCCCC/C=C\COCc1ccc(CCC(=O)O)cc1`: the melting point lay in the range of 35 to 36 °C.
As for `CCOC(=O)C(C)(C)Oc1ccc(-c2ccc(CCNC(=O)c3ccc(OC)cc3)cc2)cc1`, the melting point was in the range of 149 to 150 °C.
As for `Cn1ccnc1Sc1ccc(Nc2c(C#N)cnc3cc(N4CCC(N5CCCC5)CC4)c(N)cc23)cc1Cl`, the melting point was in the range of 265 to 267 °C.
Compound `CC(=O)OCCCc1c2ccccc2cc2ccccc12` had a melting point of 107 to 109 °C.
Next, `O=C(O)CNC(=Nc1ccccc1)NC1CCCCC1`: 160 to 165 °C; `O=C(O)[C@H](Cc1cccs1)NN1C(=O)c2ccccc2C1=O`: 166 to 168 °C; `COCOc1cc(CBr)c2nc3cccc(OCOC)c3nc2c1`: 167 to 168 °C.
Regarding `COc1ccc(-c2nc(C)nn2-c2ccc(S(N)(=O)=O)cc2)cc1OC`, the melting point was 176 to 178 °C.
For `O=C1CSCN1CCCCN1CCN(c2ccc(F)cc2)CC1`, the melting point was in the range of 83 to 85 °C.
Regarding `Cc1ccc(-c2ccc(O)cc2)c(-c2ccc(OCCN3CCOCC3)cc2)n1`, the melting point lay within 75 to 80 °C.
`CN1CCc2[nH]c(=O)n3nc(-c4ccccc4F)nc3c2C1` had a melting point of 285 to 287 °C.
In turn, `Cc1ccc(Nc2ccc3c4c(cccc24)CC3)cc1` yielded a melting point of 96.2 to 96.8 °C.
In turn, `CS[C@@H]1CC(=O)N(Cc2ccc(Oc3ccc(F)cc3)nc2)C1` gave a melting point of 94 to 95 °C.
Next, `Oc1ccc(Oc2cccc(-c3nnc(Nc4ccc(Cl)c(Cl)c4)s3)c2)cc1`: 224 to 226 °C; `CC(=O)N1CCc2ccc(SCc3ccccc3)c(N)c2C1`: 133 to 136 °C.
`Cc1cc(O)c(CC(=O)OCCC(C)C)cc1O` returned a melting point of 99 °C.
`O=[N+]([O-])c1ccc2c(c1)C(c1ccccc1F)=[N+]([O-])C(CCl)N2` (stereo unspecified) displayed a melting point of 220 to 224 °C.
Next, `CC(=O)OCc1cc2cc(-c3ccc(OC(F)(F)F)cc3)ccc2n1Cc1ccc(C)cc1`: 125 to 126 °C; `Cn1cc(C2=C(n3ccc4ccccc43)C(=O)NC2=O)c2ccccc21`: 235 to 236 °C; `Cc1[nH]cnc1CN1CCc2c(c3cccc4c3n2CCCC4)C1=O`: 215 to 216 °C.
Compound `NNC1=NCc2c[nH]c3cccc1c23` showed a melting point of 188 to 189 °C.
`COc1ccc2c(c1)C(=O)C(n1ccnc1)CO2` (stereo unspecified) had a melting point of 150 to 152 °C.
For `CCOC(=O)CC1(N2C(=O)c3ccccc3C2=O)C(=O)N(c2ccccc2)c2ccccc21` (stereo unspecified), the melting point fell in the range of 148 to 149 °C.
`Cc1ccc(C)c(NS(=O)(=O)c2ccc(N3CCNC3=O)cc2)c1` displayed a melting point of 213 to 215 °C.
In turn, `Cc1cc(NC(=O)Cc2cccs2)nc(C)c1Br` had a melting point of 192 °C.
`COc1cc2c(cc1OC)C(C(S)(C#N)C(C)C(=O)O)=NCC2` (stereo unspecified) displayed a melting point of 155 to 158 °C.
`CNC(=O)NS(=O)(=O)c1cc2c(cc1OC)OCC(NC(=O)c1cc(Cl)ccc1OC)C2` (stereo unspecified) gave a melting point of 256 to 257 °C.
As for `Cn1cncc1C(O)(c1ccc(C=O)cc1)c1ccc2c(c1)c(-c1cccc(Cl)c1)cc(=O)n2C` (stereo unspecified), the melting point turned out to be 208 °C.
The compound `Cc1ccc2c(NCc3ccc(NC(=O)c4ccc(F)cc4)cc3)nc(NC3CCN(Cc4ccccc4)CC3)nc2c1` came in with a melting point of 135 to 138 °C.
`C[C@H](CNC(=O)COc1cc(C(F)(F)F)c2c(-c3ccccc3)nn(C)c2n1)c1ccccc1` had a melting point of 91 to 93 °C.
Compound `CC1OC(c2ccccc2Cl)c2cc(Cl)ccc2NC1=O` (stereo unspecified) returned a melting point of 214 to 215 °C.
In turn, `CS(=O)(=O)Nc1cc2oc(Br)c(NC=O)c(=O)c2cc1Oc1ccccc1` registered a melting point of 237 to 238 °C.
`COc1ccc(Oc2nccnc2Cl)cc1` yielded a melting point of 62 to 64 °C.
With `N#Cc1c(N)nc2ccc([N+](=O)[O-])cc2c1NCc1cccs1`, the melting point fell in the range of 277 to 280 °C.
The compound `NC(=O)N1c2ccccc2C(Cl)=C(Cl)c2ccccc21` registered a melting point of 265 to 270 °C.
`NC(=O)c1cccc(NC(=O)Cc2cccc(Br)c2)c1`: the melting point amounted to 202 °C.
With `S=C(NCCCCN(Cc1ccc(Cl)c(Cl)c1)c1ccccn1)NCCCn1ccnc1`, the melting point fell in the range of 112 to 114 °C.
Compound `CCS(=O)(=O)Nc1nc(CCCN2CCN(C(c3ccccc3)c3ccccc3)CC2)cs1` registered a melting point of 162 to 164 °C.
Regarding `C#CCOc1cc(-n2nc3c(Cl)cc(Cl)cn3c2=O)c(F)cc1C#N`, the melting point is 145 to 147 °C.
